What all share (assay type): cell-based
The target in assay [1] is T1, vanilloid receptor 1 (VR1/TRPV1 receptor) (Homo sapiens, UniProt Q8NER1).
T1 construct: expressed in transfected cells; host or cells: CHO K1 cells (ECACC), stably transfected
Kind of assay: FLIPR Ca2+ influx assay with CHO K1 cells transfected with the human VR1 gene, capsaicin stimulus. Conditions: Cap = capsaicin (100 nM), Ki from IC50 by Cheng-Prusoff, read-out: Ki (human being) [nM] Cap. As for the experimental part:
Furthermore, preference may be given to compounds according to the invention of general formula (I) that cause a 50 percent displacement of capsaicin, which is present at a concentration of 100 nM, in a FLIPR assay with CHO K1 cells which were transfected with the human VR1 gene at a concentration of less than 2,000 nM, preferably less than 1,000 nM, particularly preferably less than 300 nM, most particularly preferably less than 100 nM, even more preferably less than 75 nM, additionally preferably less than 50 nM, most preferably less than 10 nM. In the process, the Ca^2+ influx is quantified in the FLIPR assay with the aid of a Ca^2+-sensitive dye (type Fluo-4, Molecular Probes Europe BV, Leiden, the Netherlands) in a fluorescent imaging plate reader (FLIPR, Molecular Devices, Sunnyvale, USA), as described hereinafter. The agonistic or antagonistic effect of the substances to be tested on the vanilloid receptor 1 (VR1) can also be determined using the following assay. In this assay, the influx of Ca^2+ through the channel is quantified with the aid of a Ca^2+-sensitive dye (type Fluo-4, Molecular Probes Europe BV, Leiden, the Netherlands) in a fluorescent imaging plate reader (FLIPR, Molecular Devices, Sunnyvale, USA). Chinese hamster ovary cells (CHO K1 cells, European Collection of Cell Cultures (ECACC) United Kingdom) are stably transfected with the VR1 gene. For functional testing, these cells are plated out on poly-D-lysine-coated black 96-well plates having a clear base (BD Biosciences, Heidelberg, Germany) at a density of 25,000 cells/well. The cells are incubated overnight at 37° C. and 5% CO2 in a culture medium (Ham's F12 nutrient mixture, 10% by volume of FCS (foetal calf serum), 18 μg/ml of L-proline). The next day the cells are incubated with Fluo-4 (Fluo-4 2 μM, 0.01% by volume of Pluronic F127, Molecular Probes in HBSS (Hank's buffered saline solution), Gibco Invitrogen GmbH, Karlsruhe, Germany) for 30 minutes at 37° C. Subsequently, the plates are washed three times with HBSS buffer and after further incubation for 15 minutes at RT used for Ca^2+ measurement in a FLIPR assay. The Ca^2+-dependent fluorescence is measured before and after the addition of the substances to be tested (λex wavelength=488 nm, λem=540 nm). Quantification is carried out by measuring the highest fluorescence intensity (FC, fluorescence counts) over time. The FLIPR protocol consists of 2 substance additions. First the compounds to be tested (10 μM) are pipetted onto the cells and the Ca^2+ influx is compared with the control (capsaicin 10 μM) (% activation based on the Ca^2+ signal after the addition of 10 μM of capsaicin). After 5 minutes' incubation, 100 nM of capsaicin are applied and the Ca^2+ influx is also determined. Desensitising agonists and antagonists led to suppression of the Ca^2+ influx. The % inhibition is calculated compared to the maximum achievable inhibition with 10 μM of capsaicin. Starting from the percentage displacement caused by different concentrations of the compounds to be tested of general formula I, IC50 inhibitory concentrations which cause a 50-percent displacement of capsaicin were calculated. K, values for the test substances were obtained by conversion by means of the Cheng-Prusoff equation (Cheng, Prusoff; Biochem. Pharmacol. 22, 3099-3108, 1973). The affinity of the compounds according to the invention for the vanilloid receptor 1 (VR1/TRPV1 receptor) was determined as described hereinbefore (pharmacological methods I and II respectively). The compounds according to the invention of the above-indicated formula (I) display outstanding affinity to the VR1/TRPV1 receptor (Table 1.).

The target in assay [2] is T1, vanilloid receptor 1 (VR1/TRPV1 receptor). Put plainly: Functional test on vanilloid receptor 1, 45° C. stimulus (human). Conditions: for IC50: read-out: IC50 (human being) [nM], 45° C.
Assay [3] has the same target. Kind of assay: FLIPR Ca2+ influx assay with CHO K1 cells transfected with the human VR1 gene, capsaicin stimulus. Conditions: read-out: inhibition (as a percentage), human being, Cap; for inhibition at 5 µM: @ 5 μM compound.

In general, Ki refers to the dissociation constant of the complex between target and ligand, obtained from inhibition or displacement. By inhibition is commonly meant the change of the read-out against control, counted positive when it falls. For orientation: IC50 means the midpoint of a concentration-inhibition curve.

T1 sequence (Q8NER1 whole entry): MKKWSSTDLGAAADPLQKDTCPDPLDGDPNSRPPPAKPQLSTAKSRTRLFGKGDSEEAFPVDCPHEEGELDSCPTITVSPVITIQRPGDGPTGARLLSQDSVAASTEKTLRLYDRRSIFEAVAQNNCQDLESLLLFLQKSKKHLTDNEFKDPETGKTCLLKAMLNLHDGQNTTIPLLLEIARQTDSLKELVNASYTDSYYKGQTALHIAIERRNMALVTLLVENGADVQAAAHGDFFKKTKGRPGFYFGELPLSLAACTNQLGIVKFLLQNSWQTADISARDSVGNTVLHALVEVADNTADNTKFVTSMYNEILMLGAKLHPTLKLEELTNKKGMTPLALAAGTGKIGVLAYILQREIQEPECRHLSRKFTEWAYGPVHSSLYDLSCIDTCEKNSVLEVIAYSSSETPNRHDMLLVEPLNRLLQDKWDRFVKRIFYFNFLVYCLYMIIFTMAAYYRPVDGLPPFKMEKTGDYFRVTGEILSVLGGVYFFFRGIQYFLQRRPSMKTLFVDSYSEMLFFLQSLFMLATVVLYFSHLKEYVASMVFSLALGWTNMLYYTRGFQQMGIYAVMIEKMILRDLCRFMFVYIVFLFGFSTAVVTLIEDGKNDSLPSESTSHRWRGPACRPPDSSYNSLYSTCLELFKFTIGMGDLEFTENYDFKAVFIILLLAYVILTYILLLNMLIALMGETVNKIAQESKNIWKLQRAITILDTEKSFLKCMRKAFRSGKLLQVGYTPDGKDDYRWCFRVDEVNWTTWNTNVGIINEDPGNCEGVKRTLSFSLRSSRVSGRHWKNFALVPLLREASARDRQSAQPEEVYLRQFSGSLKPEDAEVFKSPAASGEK

Regarding `CC(C(=O)NCc1cc(C(F)(F)F)nn1-c1ccccc1)c1cn(C)c2ccccc12` (centres unmarked) [Example 1, 2-(1-methyl-1H-indol-3-yl)-N-((1-phenyl-3-(trifluoromethyl)-1H-pyrazol-5-yl)methyl)propanamide], the inhibition constant Ki in assay [1] worked out at 42.1 nM.

On to `CC(C(=O)NCc1cc(C(C)(C)C)nn1-c1cccc(Cl)c1)c1cn(C)c2ccccc12` (centres unmarked) [Example 2, N-((3-tert-butyl-1-(3-chlorophenyl)-1H-pyrazol-5-yl)methyl)-2-(1-methyl-1H-indol-3-yl)propanamide], for which the inhibitory constant (Ki) in assay [1] stood at 33.6 nM. The same measure, in the same setting: the result for `COc1cccc(-n2nc(C(F)(F)F)cc2CNC(=O)C(C)c2cn(C)c3ccccc23)c1` (centres unmarked) [Example 3, N-((1-(3-methoxyphenyl)-3-(trifluoromethyl)-1H-pyrazol-5-yl)methyl)-2-(1-methyl-1H-indol-3-yl)propanamide] reads 49.8 nM. The same measure, in the same setting: next, `CC(C(=O)NCc1cc(C(C)(C)C)nn1-c1ccccn1)c1cn(C)c2ccc(O)cc12` (centres unmarked) [Example 6, N-((3-tert-butyl-1-(pyridin-2-yl)-1H-pyrazol-5-yl)methyl)-2-(5-hydroxy-1-methyl-1H-indol-3-yl)propanamide]: 56.8 nM. With `Cc1c(C(F)(F)F)nn(-c2cccc(Cl)c2)c1CNC(=O)C(C)c1cn(C)c2ccc(O)cc12` (centres unmarked) [Example 7, N-((1-(3-chlorophenyl)-4-methyl-3-(trifluoromethyl)-1H-pyrazol-5-yl)methyl)-2-(5-hydroxy-1-methyl-1H-indol-3-yl)propanamide], in assay [2] (@ 2.5 μM compound, read-out: inhibition (as a percentage), human being, 45° C.), the inhibition at 2.5 µM stood at 36%. For the same compound, in assay [1], the Ki stood at 0.4 nM. `CC(C(=O)NCc1cc(C(F)(F)F)nn1-c1cccc(Cl)c1)c1cn(C)c2ccccc12` (centres unmarked) [Example 8, N-((1-(3-chlorophenyl)-3-(trifluoromethyl)-1H-pyrazol-5-yl)methyl)-2-(1-methyl-1H-indol-3-yl)propanamide]: the IC50 in assay [2] is 924 nM. The Ki in assay [1] amounted to 6.4 nM. As for `Cn1cc(CC(=O)NCc2cc(C(F)(F)F)nn2-c2cccc(Cl)c2)c2cc(O)ccc21` [Example 9, N-((1-(3-chlorophenyl)-3-(trifluoromethyl)-1H-pyrazol-5-yl)methyl)-2-(5-hydroxy-1-methyl-1H-indol-3-yl)acetamide], in assay [2], the IC50 came out at 1730 nM. Besides, the Ki in assay [1] came to 0.25 nM. The matching figures for `CC(C(=O)NCc1cc(C(C)(C)C)nn1-c1ccc(F)c(Cl)c1)c1cn(C)c2ccc(O)cc12` (centres unmarked) [Example 11, N-((3-tert-butyl-1-(3-chloro-4-fluorophenyl)-1H-pyrazol-5-yl)methyl)-2-(5-hydroxy-1-methyl-1H-indol-3-yl)propanamide]: 39 nM and 0.7 nM. `CC(C(=O)NCc1cc(C2CC2)nn1-c1cccc(Cl)c1)c1cn(C)c2ccc(O)cc12` (centres unmarked) [Example 12, N-((1-(3-chlorophenyl)-3-cyclopropyl-1H-pyrazol-5-yl)methyl)-2-(5-hydroxy-1-methyl-1H-indol-3-yl)propanamide]: the IC50 in assay [2] stood at 95.8 nM. The inhibition constant (Ki) in assay [1] stood at 1.1 nM.

Consider `COc1ccc2c(c1)c(CC(=O)NCc1cc(C(C)(C)C)nn1-c1cccc(Cl)c1)cn2C` [Example 13, N-((3-tert-butyl-1-(3-chlorophenyl)-1H-pyrazol-5-yl)methyl)-2-(5-methoxy-1-methyl-1H-indol-3-yl)acetamide], for which the Ki in assay [1] came out at 33.3 nM. In the case of `COc1ccc2c(c1)c(C(C)C(=O)NCc1cc(C(C)(C)C)nn1-c1cccc(Cl)c1)cn2C` (centres unmarked) [Example 14, N-((3-tert-butyl-1-(3-chlorophenyl)-1H-pyrazol-5-yl)methyl)-2-(5-methoxy-1-methyl-1H-indol-3-yl)propanamide], the inhibition constant (Ki) in assay [1] stood at 48.1 nM. In the case of `CC(C(=O)NCc1cc(C(F)(F)F)nn1CC1CC1)c1cn(C)c2ccccc12` (centres unmarked) [Example 15, N-((1-(cyclopropylmethyl)-3-(trifluoromethyl)-1H-pyrazol-5-yl)methyl)-2-(1-methyl-1H-indol-3-yl)propanamide], the inhibition at 5 µM in assay [3] turned out to be 14%.

`O=C(NCc1cc(C(F)(F)F)nn1-c1cccc(Cl)c1)Nc1n[nH]c2ccccc12` [Example 16, 1-((1-(3-chlorophenyl)-3-(trifluoromethyl)-1H-pyrazol-5-yl)methyl)-3-(1H-indazol-3-yl)urea]: the inhibition at 5 µM in assay [3] is 24%. Turning to `Cn1nc(NC(=O)NCc2cc(C(F)(F)F)nn2-c2cccc(Cl)c2)c2cccnc21` [Example 17, 1-((1-(3-chlorophenyl)-3-(trifluoromethyl)-1H-pyrazol-5-yl)methyl)-3-(1-methyl-1H-pyrazolo[3,4-b]pyridin-3-yl)urea], the inhibition at 1 µM in assay [3] (@ 1 μM compound) was determined as 4%. Also, the inhibition at 5 µM in assay [3] is 30%. Regarding `Cn1cc(CC(=O)NCc2nc(C(C)(C)C)nn2-c2cccc(Cl)c2)c2cc(O)ccc21` [Example 18, N-((3-tert-butyl-1-(3-chlorophenyl)-1H-1,2,4-triazol-5-yl)methyl)-2-(5-hydroxy-1-methyl-1H-indol-3-yl)acetamide], in assay [1], the inhibition constant (Ki) worked out at 70.9 nM. Consider “N-((1-cyclopentyl-3-(trifluoromethyl)-1H-pyrazol-5-yl)methyl)-2-(5-hydroxy-1-methyl-1H-indol-3-yl)propanamide [Example 4]”, for which the IC50 in assay [2] is 92 nM. In addition, in assay [1], the Ki was 4.8 nM.

Source of the values: patent publication US20120115903A1, “Substituted Heteroaromatic Carboxamide and Urea Compounds as Vanilloid Receptor Ligands” (Gruenenthal GmbH, priority 2010, published 2012).
